# Laboratory results as given in PMC4502414, “Transforming berberine into its intestine-absorbable form by the gut microbiota” (Scientific Reports, 2015).
# Read-outs that look alike come from different tables or passages of the source.
# Experiments:
# [1] = Effect of heat inactivation and vitamin C on dhBBR-to-BBR transformation in rat small intestine homogenate; type: in vitro ADME; settings: added to the reaction solution
# Procedure: The rats (n = 3) were sacrificed to obtain fresh small intestine homogenate. The homogenate was then boiled for 2 min to inactivate all of the enzymes. After pre-incubation at 37 °C for 2 min, 5 μl of dhBBR (10 mM, dissolved in DMSO) was added into the inactivated homogenate, and fresh homogenate (active one) was used as a reference. The sample was mixed thoroughly and centrifuged at 16,000 g for 5 min. The supernatant was transferred into new tubes, treated with 500 μl of acetonitrile, and then centrifuged. Twenty-microliter aliquots were used for the HPLC analysis.
# To examine the oxidative reaction, 100 μl of vitamin C was pre-incubated with the inactivated homogenate; the final concentrations of vitamin C were 95, 9.5 and 0.95 mM. The superoxide anion in the sample was detected with an O2^− ELISA kit (Beijing Biolab Co., Ltd., Beijing, China; lot: 201404) following the manufacturer’s instructions.
# nitroreductase = molecular target: T1, nitroreductase (Escherichia coli, UniProt P38489); test: Nitroreductase-mediated BBR reduction, cell-free incubation; type: biochemical; settings: 2-IBA 100 μM, nitroreductase-containing cell-free incubation; read-out: inhibition rate of BBR-to-dhBBR conversion
# T1 construct: purchased Sigma-Aldrich Co. (Shanghai, China); host or cells: Escherichia coli
# T1 sequence (P38489 whole entry): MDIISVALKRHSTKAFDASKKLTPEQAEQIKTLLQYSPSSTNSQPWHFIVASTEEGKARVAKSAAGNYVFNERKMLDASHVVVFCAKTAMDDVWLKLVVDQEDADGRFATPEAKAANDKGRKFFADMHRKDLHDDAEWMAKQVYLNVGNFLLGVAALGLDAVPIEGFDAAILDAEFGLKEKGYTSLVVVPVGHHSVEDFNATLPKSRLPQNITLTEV
# Procedure: (§1) BBR was incubated with nitroreductase in intestinal bacteria cultures. The reaction mixture consisted of BBR (50 μg/ml), an NADPH-regenerating system and nitroreductase (5 μg/ml) in a final volume of 1 ml under the protection of N2. After incubation for 0, 2, 4, 6 and 12 h at 37 °C, the reaction was terminated by the addition of 1 ml of ice-cold acetonitrile. The samples were then extracted with 1 ml of ethyl acetate after adding 1 ml of 0.5 M sodium hydroxide solution. The organic phase was evaporated to dryness under a nitrogen flow in a water bath at 40 °C. The residue was dissolved with 200 μl of the mobile phase for further analysis. 2-Iodosobenzoic acid (2-IBA), a specific inhibitor of nitroreductase, was used to verify the role of bacterial nitroreductase.
# [2] = system: mixture of rat gut bacteria; test: BBR-to-dhBBR conversion in rat gut bacteria mixture with nitroreductase inhibitor; type: cell-based; settings: 2-IBA in BBR incubation with mixture of rat gut bacteria, 12 h
# Procedure: as §1
# [3] = Effect of ions on the dhBBR-to-BBR transformation; settings: EDTA-2Na 10 mM
# Procedure: dhBBR was added into the reaction solution containing FeCl3, CuCl2, ZnCl2, and NaCl (at concentrations of 0.033, 0.333 and 3.33 mM, respectively). Ethylenediaminetetraacetic acid disodium salt (EDTA-2Na, 10 mM), a chelating agent for metal ions, was used in the test.
# [4] = Therapeutic effect of BBR on hyperglycemia and hyperlipidemia in KK-Ay mice with or without antibiotics; type: in vivo
# Source text: KK-Ay mice with type 2 diabetes (female, 12 ± 1 weeks of age) were purchased from the Institute of Laboratory Animal Sciences, Chinese Academy of Medical Sciences (Beijing, China). […] Antibiotics at the doses described above were orally administered to KK-Ay mice for 3 days before the BBR treatment course, and the pseudo germ-free (PGF) state of the experimental mice was confirmed (see above). Four groups (n = 6 for each group) were used in the experiment: Group1, PGF KK-Ay mice orally treated with antibiotics (qd, at the dosage described above) plus BBR (200 mg/kg, qd) for 2 weeks; Group 2, untreated KK-Ay mice orally treated with BBR (200 mg/kg, qd) for 2 weeks; Group 3, PGF KK-Ay mice orally treated with antibiotics (qd, at a dosage identical to that for Group 1) for 2 weeks; Group 4, untreated KK-Ay mice. The antibiotics were administered in the morning and BBR was administered in the afternoon. All the animals were fed a high-fat diet. […] All of the mice were euthanized on day 14, and blood samples were taken to measure the fasting serum glucose (Glu), triglyceride (TG) and cholesterol (CHO) using Glu, TG and CHO reagent kits (Biosino Bio-Technology and Science INC, Beijing China), respectively. C57BL/6J mice were used as a wild-type reference. The body weights of the mice before, during and after treatments were recorded for 14 days.
# 17 intestinal bacteria = test: Anti-bacterial test (MIC, broth microdilution); type: cell-based; settings: 24 h
# Procedure: Seventeen bacterial strains (see above) were used in the susceptibility test for BBR and dhBBR. The bacterial strains, which belong to different species of bacteria, were collected and identified as described above. The minimum inhibitory concentrations (MICs) of BBR and dhBBR after 24 h were determined through the broth microdilution method according to the CLSI guidelines. BBR and dhBBR were tested at a concentration range of 8 to 512 μg/ml. The MIC was defined as the lowest concentration of an agent that prevents turbidity. The experiment was repeated three times. All of the bacterial strains tested in this study (S. aureus ATCC 29213, E. faecalis ATCC 29212, E. coli ATCC 25922, S. aureus 08-43, S. epidermidis 12-12, E. faecium 13-01, E. faecalis 13-01, E. coli 06-05, K. pneumoniae 13-14, Ps. aeruginosa 13-10, A. baumannii 13-02, E. cloacae 13-12, and P. mirabilis 13-01) were facultative anaerobes, of which S. aureus ATCC 29213, E. faecalis ATCC 29212 and E. coli ATCC 25922 were standard strains from ATCC (USA) and served as quality controls. L. casei ATCC 334, L. acidophilus ATCC 4356, B. longum ATCC 15707, and B. breve ATCC 15700 were also tested in this anti-bacterial experiment. Ampicillin was used as the positive control.
# [5] = parameters: method as in PMID 21637946, PMID 12530470; settings: cited from earlier work
# [6] = Plasma BBR in pseudo germ-free versus conventional rats after oral BBR; type: in vivo; settings: male, SD, rat, 200 mg/kg, oral BBR 200 mg/kg
# Procedure: (§2) Male SD rats (180–200 g) were orally treated with cefadroxil (100 mg/kg), terramycin (300 mg/kg) and erythromycin (300 mg/kg) twice a day for 3 days, and pharmacokinetic examination was performed 2 days after final administration. The colon contents of the rats were collected on the first and third days after the final treatment with antibiotics, and the germ-free status was confirmed by culturing fecal samples aerobically on a nutrient agar culture medium. Fecal samples from non-antibiotic-exposed rats served as control samples.
# Before oral administration of a single dose of BBR (200 mg/kg), the PGF rats were fasted overnight with free access to water. Blood samples were collected from the posterior orbital venous plexus into a heparinized tube at 0, 0.25, 0.5, 1, 1.5, 2, 3, 4, 6, 8, and 12 h post-BBR treatment and then subjected to the procedure described above. Fecal samples were also collected at 0, 6, 12, 24, 36 and 48 h post-BBR treatment. The samples were stored at −20 °C for further analysis.
# [7] = Plasma concentration of BBR in KK-Ay mice treated or untreated with antibiotics; type: in vivo; settings: for Cmax at 14 day: KK-Ay, mouse, plasma, oral, 200 mg/kg, BBR 200 mg/kg qd
# Procedure: Blood samples of the mice in Groups 1 and 2 were collected into a heparinized tube 30 min after the oral administration of BBR. The samples were taken at days 1, 3, 6, 10 and 14 of the BBR treatment course. The samples were centrifuged at 10,000 g for 5 min, and the plasma was collected and stored at −80 °C before analysis.
# [8] = Absorption of BBR and dhBBR in Caco-2 cells; type: in vitro ADME; settings: human
# Procedure: A Caco-2 cell assay was conducted using a method reported previously. […] To determine the rate of drug transport in the apical-to-basolateral direction, 200 μl of the compound working solution was added to the filter well (apical compartment), and 800 μl of HBSS was added to the receiver plate (basolateral compartment). Accordingly, to determine the rate of drug transport in the basolateral-to-apical direction, 800 μl of the compound working solution was added to each well of the receiver plate and 200 μl of HBSS was added to the filter well. The plates were incubated for 30 min at 37 °C with shaking at 150 rpm on a rotary shaker. At the end of the transport period, aliquots of 50 μl were removed directly from the apical and basolateral wells and transferred to wells of new plates. Four volumes of cold methanol containing internal standards were added into each well. The samples were centrifuged at 16,000 g for 15 min. Aliquots of 200 μl of the supernatant were used for the LC-MS/MS analysis.
# [9] = Plasma pharmacokinetics after oral dhBBR or BBR in rats; type: in vivo, SD rats; settings: SD, rat, plasma, po, 200 mg/kg
# Procedure: The plasma (100 μl) was precipitated with 100 μl of acetonitrile after addition of 10 μl of the internal standard. BBR served as a control in the study. The plasma concentrations of BBR and dhBBR were determined using LC-MS/MS 8040 and LC-MS/MS 8050.
# [10] = 72-h cumulative fecal excretion of BBR and dhBBR in pseudo germ-free (PGF) and conventional rats; type: in vivo, SD rats; settings: oral BBR 200 mg/kg
# Procedure: as §2, with “samples. Before oral administration of a single dose of BBR (200 mg/kg), the PGF rats were fasted overnight with free access to water. […] The samples were stored at −20 °C for further analysis.” for “samples.”
# [11] = parameters: method as in PMID 24174332; settings: patients; cited from earlier work
# [12] = parameters: method as in PMID 18285556; settings: cited from earlier work
compound,measurement,setting,value
O=C1O[C@H]([C@@H](O)CO)C(O)=C1O [vitamin C],effect on dhBBR-to-BBR reversion,[1],almost completely terminated
"O=Ic1ccccc1C(=O)O [2-IBA, 2-iodosobenzoic acid]",inhibition at 100 µM,nitroreductase,88.3%
same,inhibition of dhBBR production,[2],78.7%
"O=C([O-])CN(CCN(CC(=O)O)CC(=O)O)CC(=O)[O-].[Na+].[Na+] [EDTA-2Na, Ethylenediaminetetraacetic acid disodium salt]",reduction of dhBBR-to-BBR oxidization,[3],5%
"COc1ccc2cc3[n+](cc2c1OC)CCc1cc2c(cc1-3)OCO2 [BBR, berberine]",reduction of therapeutic efficacy of BBR on cholesterol by antibiotics,"[4]; Group 1 vs Group 2, day 14",44%
same,reduction of therapeutic efficacy of BBR on triglyceride by antibiotics,"[4]; Group 1 vs Group 2, day 14",53%
same,reduction of therapeutic efficacy of BBR on fasting blood glucose by antibiotics,"[4]; antibiotics before and during BBR (Group 1) vs BBR only (Group 2), day 14",42%
same,MIC,"17 intestinal bacteria; span over 17 strains, read-out: minimal inhibitory concentration (MIC) on the 17 bacteria",> 128 µg/mL
same,MIC,"17 intestinal bacteria; read-out: MIC, most of the 17 tested strains",≥ 512 µg/mL
same,water solubility,[5],poor water solubility
same,AUC(0-t),[6]; conventional SD rat,70.9 ng·h/mL
same,Cmax,[6]; conventional SD rat,26 ng/mL
same,AUC(0-t),[6]; pseudo germ-free rat,11.9 ng·h/mL
same,Cmax,[6]; pseudo germ-free rat,6.92 ng/mL
same,Cmax at 14 day,"[7]; day 14, mice treated with antibiotics (Group 1)",28.3 ± 3.41 ng/mL
same,Cmax at 14 day,"[7]; day 14, mice without antibiotics (Group 2)",178 ± 57.6 ng/mL
same,Folds of Cmax [BBR / (BBR+Antibiotics)],[7]; day 14,6.4 fold
same,"Folds of Cmax, Group 2 over Group 1","[7]; throughout days 1, 3, 6, 10 and 14",3.5-6.5 fold
same,"efflux ratio at 30 min, 5 μM","[8]; Caco-2, pH 7.4, read-out: efflux ratio (ER)",32.4
same,"Papp A→B at 30 min, 5 μM","[8]; pH 7.4, Caco-2, 5 μM, 30 min",0.38 ×10⁻⁶ cm/s
same,AUC(0-t),"[9]; oral BBR 200 mg/kg, Fig. 3c curve 2, read-out: AUC(0-t) of BBR in plasma",54.6 ng·h/mL
same,Cmax,"[9]; oral BBR 200 mg/kg, Fig. 3c curve 2, read-out: Cmax of BBR in plasma",16.1 ng/mL
same,AUC(0-t),"[9]; oral dhBBR 200 mg/kg, read-out: AUC(0-t) of BBR in blood",262 ng·h/mL
same,Cmax,"[9]; oral dhBBR 200 mg/kg, read-out: Cmax of BBR in blood",52.5 ng/mL
same,"total BBR in feces over 72 h, % of the administered amount",[10]; PGF rats,27.81%
same,"total BBR in feces over 72 h, % of the administered amount",[10]; untreated (conventional) rats,18.67%
same,reduction of LDL-c level,[11],10–25%
same,reduction of fasting blood glucose level,[11],21–36%
same,reduction of triglyceride level,[11],20–35%
dihydroberberine sulfate,absorption in the intestine compared with BBR,[12],better absorption
